# Assays:
# [1] = biological target: hGYS1 enzyme (recombinant hGYS1/GN1 protein) (Homo sapiens (Human), UniProt P13807); experiment: GYS1 coupled enzyme assay (PK/LDH); format: biochemical; conditions: hGYS1/GN1 50 nM, UDP-Glucose 0.8 mM, G6P 1 mM; geometric mean of at least 2 runs
# [2] = test system: hGYS1 enzyme / glycogen synthesis in HeLa cells; experiment: GYS1 cell based assay (glycogen synthesis, Glucose-glo); parameters: species or system human; conditions: 24 h incubation, 20 mM glucose, geometric mean of at least 2 runs
# How it was run: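 HeLa cells starved 24 h in medium containing only 1× Glutamax were plated onto compound in medium with 20 mM glucose (1% DMSO final) for 24 h, 37 °C, 5% CO2. Acid lysates were Tris-quenched, glucoamylase-digested (pH 5.3, 1 h, 37 °C) and read by Glucose-glo luminescence. IC50 came from Hill fits, as geometric mean of ≥2 runs.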
# [3] = biological target: hGYS2 enzyme (recombinant hGYS2/GN1 protein) (Homo sapiens (Human), UniProt P54840); experiment: GYS2 coupled enzyme assay (PK/LDH); format: biochemical; conditions: geometric mean of at least 2 assay runs on separate days, read-out: Avg_IC50
# Chain of hGYS2 enzyme (recombinant hGYS2/GN1 protein) (P54840 whole entry): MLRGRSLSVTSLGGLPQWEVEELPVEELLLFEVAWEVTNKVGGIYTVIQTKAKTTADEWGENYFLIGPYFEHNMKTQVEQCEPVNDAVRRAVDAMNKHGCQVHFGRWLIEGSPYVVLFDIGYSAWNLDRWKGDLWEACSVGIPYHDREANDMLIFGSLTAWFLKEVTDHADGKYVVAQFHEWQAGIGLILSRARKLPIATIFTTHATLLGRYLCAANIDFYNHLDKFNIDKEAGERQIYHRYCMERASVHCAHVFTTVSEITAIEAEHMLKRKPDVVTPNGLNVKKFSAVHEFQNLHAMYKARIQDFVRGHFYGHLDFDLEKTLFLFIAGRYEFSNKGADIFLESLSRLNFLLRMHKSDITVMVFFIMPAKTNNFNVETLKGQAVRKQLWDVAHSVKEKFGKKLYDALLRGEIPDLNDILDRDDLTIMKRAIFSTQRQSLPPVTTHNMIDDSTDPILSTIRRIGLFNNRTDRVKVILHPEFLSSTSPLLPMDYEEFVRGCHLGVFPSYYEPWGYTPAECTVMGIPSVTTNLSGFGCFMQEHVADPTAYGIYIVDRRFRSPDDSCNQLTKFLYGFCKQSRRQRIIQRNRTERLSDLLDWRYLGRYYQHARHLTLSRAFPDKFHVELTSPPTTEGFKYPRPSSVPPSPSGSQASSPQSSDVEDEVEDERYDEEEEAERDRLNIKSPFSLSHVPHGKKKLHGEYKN
# Chain of hGYS2 enzyme (recombinant hGYS2/GN1 protein) (P46976 whole entry partner): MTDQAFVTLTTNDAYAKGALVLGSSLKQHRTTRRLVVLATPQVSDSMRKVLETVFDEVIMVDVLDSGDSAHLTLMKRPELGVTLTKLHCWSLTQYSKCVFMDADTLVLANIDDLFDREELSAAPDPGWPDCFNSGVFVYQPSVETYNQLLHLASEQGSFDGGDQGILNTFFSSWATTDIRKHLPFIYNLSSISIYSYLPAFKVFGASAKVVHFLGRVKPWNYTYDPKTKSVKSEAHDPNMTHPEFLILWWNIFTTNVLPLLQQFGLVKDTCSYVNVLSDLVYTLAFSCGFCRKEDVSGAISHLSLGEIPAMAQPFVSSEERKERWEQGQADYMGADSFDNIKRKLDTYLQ
# How it was run: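 IC50 came from Hill fits of duplicate percent inhibition, based on control-normalized slopes of 340 nm NADH decline read each minute for 10 min. The reaction held recombinant hGYS2/GN1 (200 nM) with glycogen, UDP-glucose, G6P and PEP, plus PK/LDH coupling at pH 7.5 and 2.5% DMSO.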
# Chain of hGYS1 enzyme (recombinant hGYS1/GN1 protein) (P13807 whole entry): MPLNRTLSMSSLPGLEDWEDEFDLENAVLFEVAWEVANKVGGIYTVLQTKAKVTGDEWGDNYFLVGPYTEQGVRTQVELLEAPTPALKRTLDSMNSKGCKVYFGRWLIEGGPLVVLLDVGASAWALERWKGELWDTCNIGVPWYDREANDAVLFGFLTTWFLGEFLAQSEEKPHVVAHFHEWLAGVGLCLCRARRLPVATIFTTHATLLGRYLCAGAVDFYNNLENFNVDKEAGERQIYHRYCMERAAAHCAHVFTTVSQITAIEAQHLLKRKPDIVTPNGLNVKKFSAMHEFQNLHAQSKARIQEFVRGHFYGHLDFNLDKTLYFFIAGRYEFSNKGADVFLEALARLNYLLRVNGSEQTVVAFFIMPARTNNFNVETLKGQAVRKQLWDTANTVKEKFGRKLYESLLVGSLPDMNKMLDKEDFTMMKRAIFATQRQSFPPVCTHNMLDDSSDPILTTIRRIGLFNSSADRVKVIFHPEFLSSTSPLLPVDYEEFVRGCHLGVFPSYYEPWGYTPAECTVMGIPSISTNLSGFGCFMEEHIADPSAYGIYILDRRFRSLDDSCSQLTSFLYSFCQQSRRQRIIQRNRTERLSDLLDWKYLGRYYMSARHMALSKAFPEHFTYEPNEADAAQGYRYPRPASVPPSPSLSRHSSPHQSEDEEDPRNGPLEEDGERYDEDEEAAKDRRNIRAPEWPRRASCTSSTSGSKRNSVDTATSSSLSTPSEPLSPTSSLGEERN
# Chain of hGYS1 enzyme (recombinant hGYS1/GN1 protein) (P46976 whole entry partner): as the sequence (P46976 whole entry partner) above
Structure (SMILES),IC50 [1],"IC50 ([2]; Homo sapiens, HeLa, 24 h)",IC50 [3],IC50 [2]
"CC(C)c1ccc(C(CC2CC2)NC(=O)[C@@H]2C[C@@H](F)CN2C(=O)Cc2cnn[nH]2)cc1F (single isomer, unassigned) [Compound 653, (2S,4R)-N-[(1S) or (1R)-2-cyclopropyl-1-[3-fluoro-4-(propan-2-yl)phenyl]ethyl]-4-fluoro-1-[2-(1H-1,2,3-triazol-5-yl)acetyl]pyrrolidine-2-carboxamide]",262 nM,3750 nM,> 100000 nM,–
"O=C(NC(c1ccccc1)c1ccc(C2CCC2)c(F)c1)[C@@H]1C[C@@H](F)CN1C(=O)Cc1cnn[nH]1 (single isomer, unassigned) [Compound 674, (2S,4R)-N-[(S) or (R)-(4-cyclobutyl-3-fluorophenyl) (phenyl)methyl]-4-fluoro-1-[2-(1H-1,2,3-triazol-5-yl)acetyl]pyrrolidine-2-carboxamide]",96 nM,710 nM,> 100000 nM,–
"O=C(NC(c1ccccc1)c1ccc(C2CCC2)c(F)c1)[C@@H]1C[C@@H](F)CN1C(=O)Cn1cnnn1 (single isomer, unassigned) [Compound 675, (2S,4R)-N-[(S) or (R)-(4-cyclobutyl-3-fluorophenyl) (phenyl)methyl]-4-fluoro-1-[2-(1H-1,2,3,4-tetrazol-1-yl)acetyl]pyrrolidine-2-carboxamide]",101 nM,1130 nM,> 100000 nM,–
"CCC(C)c1ccc(C(NC(=O)[C@@H]2C[C@@H](F)CN2C(=O)Cc2cnn[nH]2)c2ccccc2)cc1F (single isomer, unassigned) [Compound 676, (2S,4R)-N-[(R) or (S)-{4-[(2R) or (2S)-butan-2-yl]-3-fluorophenyl}(phenyl)methyl]-4-fluoro-1-[2-(1H-1,2,3-triazol-5-yl)acetyl]pyrrolidine-2-carboxamide]",554 nM,–,> 100000 nM,14000 nM
"CCC(C)c1ccc(C(NC(=O)[C@@H]2C[C@@H](F)CN2C(=O)Cc2cnn[nH]2)c2ccccc2)cc1F (single isomer, unassigned) [Compound 677, (2S,4R)-N-[(S) or (R)-{4-[(2R) or (2S)-butan-2-yl]-3-fluorophenyl} (phenyl)methyl]-4-fluoro-1-[2-(1H-1,2,3-triazol-5-yl)acetyl]pyrrolidine-2-carboxamide]",51 nM,–,> 100000 nM,990 nM
"Cc1nnn(CC(=O)N2C[C@H](F)C[C@H]2C(=O)NC(c2ccccc2)c2cc(C)c(C3CC3)c(F)c2)n1 (single isomer, unassigned) [Compound 682, (2S,4R)-N-[(S) or (R)-(4-cyclopropyl-3-fluoro-5-methylphenyl) (phenyl)methyl]-4-fluoro-1-[2-(5-methyl-2H-1,2,3,4-tetrazol-2-yl)acetyl]pyrrolidine-2-carboxamide]",116 nM,2090 nM,> 100000 nM,–
"CC(=O)N1C[C@H](F)C[C@H]1C(=O)NC(c1cccc(-c2ccn[nH]2)c1)c1ccc(C(C)C)c(F)n1 (single isomer, unassigned) [Compound 690, (2S,4R)-1-acetyl-4-fluoro-N-[(S) or (R)-[6-fluoro-5-(propan-2-yl)pyridin-2-yl][3-(1H-pyrazol-5-yl)phenyl]methyl] pyrrolidine-2-carboxamide]",47 nM,900 nM,> 100000 nM,–
"CC(C)c1ccc([C@@H](NC(=O)[C@@H]2C[C@@H](F)CN2C(=O)C(C)n2cnnn2)c2ccccc2)cc1F (single isomer, unassigned) [Compound 766, (2S,4R)-4-fluoro-N-[(S)-[3-fluoro-4-(propan-2-yl)phenyl](phenyl)methyl]-1-[(2R) or (2S)-2-(1H-1,2,3,4-tetrazol-1-yl)propanoyl]pyrrolidine-2-carboxamide]",38 nM,350 nM,> 100000 nM,–
"CC(C)c1ccc([C@@H](NC(=O)[C@@H]2C[C@@H](F)CN2C(=O)C(C)n2ccnc2)c2ccccc2)cc1F (single isomer, unassigned) [Compound 768, (2S,4R)-4-fluoro-N-[(S)-[3-fluoro-4-(propan-2-yl)phenyl](phenyl)methyl]-1-[(2R) or (2S)-2-(1H-imidazol-1-yl)propanoyl]pyrrolidine-2-carboxamide]",121 nM,–,> 100000 nM,1230 nM
"CC(C)c1ccc([C@@H](NC(=O)[C@@H]2C[C@@H](F)CN2C(=O)C(O)c2cnn[nH]2)c2ccccc2)cc1F (single isomer, unassigned) [Compound 773, (2S,4R)-4-fluoro-N -[(S)-[3-fluoro-4-(propan-2-yl)phenyl](phenyl)methyl]-1-[(2R) or (2S)-2-hydroxy-2-(1H-1,2,3-triazol-5-yl)acetyl]pyrrolidine-2-carboxamide]",124 nM,–,> 100000 nM,1200 nM
"CC(C(=O)N1C[C@H](F)C[C@H]1C(=O)N[C@@H](c1ccccc1)c1ccc(C2CC2)c(F)c1)n1cnc2ccccc21 (single isomer, unassigned) [Compound 810, (2S,4R)-1-[(2R) or (2S)-2-(1H-1,3-benzodiazol-1-yl)propanoyl]-N-[(S)-(4-cyclopropyl-3-fluorophenyl)(phenyl)methyl]-4-fluoropyrrolidine-2-carboxamide]",357 nM,–,> 100000 nM,5280 nM
"CC(C)c1ccc([C@@H](NC(=O)[C@@H]2C[C@@H](F)CN2C(=O)Cc2nncn2C)c2ccccc2)cc1 (stereo in doubt) [Compound 227, (2RS,4R)-4-fluoro-1-[2-(4-methyl-4H-1,2,4-triazol-3-yl)acetyl]-N-[(S)-phenyl[4-(propan-2-yl)phenyl]methyl]pyrrolidine-2-carboxamide]",76 nM,1310 nM,> 100000 nM,–

# Stronger by IC50 [1], values ahead:
IC50 [1],"IC50 ([2]; Homo sapiens, HeLa, 24 h)",IC50 [3],IC50 [2],Structure (SMILES)
23 nM,290 nM,> 100000 nM,–,"CC(C)c1c(F)cc(C(NC(=O)[C@@H]2C[C@@H](F)CN2C(=O)Cc2cnn[nH]2)c2ccccc2)cc1F (single isomer, unassigned) [Compound 667, (2S,4R)-N-[(S) or (R)-[3,5-difluoro-4-(propan-2-yl)phenyl](phenyl)methyl]-4-fluoro-1-[2-(1H-1,2,3-triazol-5-yl)acetyl]pyrrolidine-2-carboxamide]"
25 nM,320 nM,> 100000 nM,–,"CC(C)c1c(F)cc(C(NC(=O)[C@@H]2C[C@@H](F)CN2C(=O)Cn2ccnn2)c2ccccc2)cc1F (single isomer, unassigned) [Compound 668, (2S,4R)-N-[(S) or (R)-[3,5-difluoro-4-(propan-2-yl)phenyl](phenyl)methyl]-4-fluoro-1-[2-(1H-1,2,3-triazol-1-yl)acetyl]pyrrolidine-2-carboxamide]"
15 nM,–,93000 nM,270 nM,"Cc1cc(C(NC(=O)[C@@H]2C[C@@H](F)CN2C(=O)Cc2cnn[nH]2)c2ccccc2)cc(F)c1C(C)C (single isomer, unassigned) [Compound 680, (2S,4R)-4-fluoro-N-[(S) or (R)-[3-fluoro-5-methyl-4-(propan-2-yl)phenyl](phenyl)methyl]-1-[2-(1H-1,2,3-triazol-5-yl)acetyl]pyrrolidine-2-carboxamide]"
22 nM,290 nM,> 100000 nM,–,"CC(C)c1ccc([C@@H](NC(=O)[C@@H]2C[C@@H](F)CN2C(=O)C(C)c2cnn[nH]2)c2ccccc2)cc1F (single isomer, unassigned) [Compound 769, (2S,4R)-4-fluoro-N-[(S)-[3-fluoro-4-(propan-2-yl)phenyl](phenyl)methyl]-1-[(2R) or (2S)-2-(1H-1,2,3-triazol-5-yl)propanoyl]pyrrolidine-2-carboxamide]"
33 nM,–,> 100000 nM,540 nM,"CC(C)c1ccc([C@@H](NC(=O)[C@@H]2C[C@@H](F)CN2C(=O)C(C)n2ccnc2)c2ccccc2)cc1F (single isomer, unassigned) [Compound 771, (2S,4R)-4-fluoro-N-[(S)-[3-fluoro-4-(propan-2-yl)phenyl](phenyl)methyl]-1-[(2S) or (2R)-2-(1H-imidazol-1-yl)propanoyl]pyrrolidine-2-carboxamide]"
22 nM,–,> 100000 nM,190 nM,"CC(C)c1ccc([C@@H](NC(=O)[C@@H]2C[C@@H](F)CN2C(=O)C(O)c2cnn[nH]2)c2ccccc2)cc1F (single isomer, unassigned) [Compound 774, (2S,4R)-4-fluoro-N-[(S)-[3-fluoro-4-(propan-2-yl)phenyl](phenyl)methyl]-1-[(2S) or (2R)-2-hydroxy-2-(1H-1,2,3-triazol-5-yl)acetyl]pyrrolidine-2-carboxamide]"
7 nM,–,> 100000 nM,190 nM,"CC(C(=O)N1C[C@H](F)C[C@H]1C(=O)N[C@@H](c1ccccc1)c1ccc(C2CC2)c(F)c1)n1cnc2ccccc21 (single isomer, unassigned) [Compound 809, (2S,4R)-1-[(2S) or (2R)-2-(1H-1,3-benzodiazol-1-yl)propanoyl]-N-[(S)-(4-cyclopropyl-3-fluorophenyl)(phenyl)methyl]-4-fluoropyrrolidine-2-carboxamide]"

# From US11814367B2, “Inhibitors of glycogen synthase 1 (GYS1) and methods of use thereof” (Maze Therapeutics, Inc., priority 2021, dated 2023)
